Data reported in article PMC9365693 (Nature, 2022).
Several values for one entry are separate records, joined by “and”; a condition that tells them apart may be missing. Equal values may be shown once. Entries after “also recorded” stand apart in the source; their conditions may differ.

Assays:
Staphylococcus simulans [1] = test: Sytox green membrane damage assay, S. simulans; format: cell-based
Description: (§1) The bacterial cultures were grown overnight at 30 °C in TSB media for S. simulans and at 37 °C in LB medium for Bacillus subtilis. Secondary cultures were grown for 3 h until OD600 = 0.5 was reached. The bacterial cells were then centrifuged at 1,500g for 10 min at 4 °C and washed twice with 10 ml of buffer (10 mM Tris, 100 mM NaCl, 1 mM MgCl2 and 0.5% glucose, pH 7.2). The bacterial cells were resuspended to an OD600 = 10 in the buffer and used for the experiment. […] For the assay, 1 μl of the bacterial suspension was added to 1 ml of buffer. For the ion leakage assays, 1 μl of the DiSC-2 probe from a 1 mM stock was added to the cuvette and the fluorescence was measured between a wavelength of 650 nm and 670 nm (bandwidth of […]) for 2 min before the addition of the antibiotic and 6 min after. For the Sytox green leakage assays, 1 μl of the Sytox green probe from a 0.25 mM stock was added to the cuvette and the fluorescence was measured between a wavelength of 500 nm and 520 nm (bandwidth of […]) for 2 min before the addition of the antibiotic and 6 min after. All experiments were performed in triplicates.

[2] = Pyrene-labelled lipid II excimer fluorescence (oligomerization); conditions: DOPC LUVs with 0.5 mol% pyrene-lipid II, 10 mM Tris-Cl 100 mM NaCl pH 8.0, 20 °C
Staphylococcus simulans [3] = test: DiSC membrane depolarization (ion leakage) assay, S. simulans; format: cell-based; conditions: DiSC-2 probe, Gram-positive bacteria (Fig. 4h and Extended Data Fig. 10b,c), 20 °C, pH 7.2, 2 min before and 6 min after antibiotic; triplicates
Description: as §1

B. subtilis = test: MIC, B. subtilis (given with permeabilization assay concentrations); format: cell-based, Bacillus subtilis
Description: as §1

[4] = Mobility-edited H(H)C ssNMR: membrane topology of lipid II-bound teixobactin; conditions: 300 K, T2 filter 2.5 ms
Excerpt: (§2) T1rho trajectories were fit to single exponentials.
Extended Data Fig. 8 The membrane topology of the complex. a) and b) show mobility-edited (‘T2-filtered’) ^1H(^1H)^13C ssNMR experiments[37] of ^13C,^15N-teixobactin bound to Lipid II. […] For each residue, peak areas were integrated using Topspin 4.06. Signals that were used for the integration are annotated. e) Membrane topology visualized with the ssNMR structure. Hydrophilic (in blue) and hydrophobic (brown) residues are sharply separated above and below the β-sheet, respectively. Note that the N-terminal Phe1 at the rim of the β-sheet has higher water accessibility, potentially because of fraying and mobility effects. f) Normalized contacts to water and lipid-tails, back-calculated over the MD simulation based on our ssNMR structure. g) Membrane topology using a different structure of the calculated ssNMR ensemble. As shown in Extended Data Fig. 9a, the despi-cycle is plastic and can point up towards the water phase, bringing End10 well-above the membrane-plane. Source data

[5] = 15N T1rho ssNMR relaxation of lipid II-bound teixobactin; conditions: 60 kHz MAS, in membranes
Excerpt: as §2

[6] = HS-AFM of teixobactin–lipid II fibrils on supported lipid bilayer
Description: (§3) The HS-AFM images were acquired in amplitude modulation tapping mode in liquid using a high-speed atomic force microscope (RIBM). Short cantilevers (approximately 7 μm) with a nominal spring constant of 0.15 N m^−1 were used (USC-F1.2-k0.15, NanoWorld). A minimal imaging force was applied by using a small set-point amplitude of 0.8 nm (for a 1 nm free amplitude). […] The lipid bilayer was obtained by incubating LUVs containing DOPC and lipid II (prepared as mentioned above) on top of a freshly cleaved mica for 20–30 min. […] Imaging was started on the lipid bilayer surface in recording buffer. […] Images were primarily processed using built-in scripts (RIBM) in Igor Pro (Wavemetrics) and analysed using ImageJ software. The images or videos were corrected minimally for tilt, drift and contrast. […] Image acquisition rate varies from 0.5 frames per second to 2 frames per seconds (see Fig. 2, Extended Data Figs. 5, 6, or legends of Supplementary Videos 1 and 2), and the line rate varies from 150 lines per second to 400 lines per second. […] Stated errors are standard deviation.

[7] = Intermolecular teixobactin–teixobactin ssNMR contacts (2D 13C13C); conditions: 2D 13C13C ssNMR, 600 ms transfer, lipid II-bound
Excerpt: as §2
Solid-state NMR ^13C-^13C PARISxy spectra of the ^13C,^15N-teixobactin – Lipid II complex in membranes show several cross-peaks (in red) that cannot be intramolecular contacts because this would require magnetization transfer over more than 10 Å. Rather, these cross-peaks correspond to intermolecular contacts between different teixobactin molecules and agree with the formation of antiparallel β-sheets.

S. simulans = test: MIC, S. simulans (given with permeabilization assay concentrations); format: cell-based; conditions: S. simulans
[8] = HS-AFM control experiments (membrane height; bilayers without lipid II); parameters: membrane height: unit not given here; conditions: for membrane height: source data Ext. Data Fig. 6, DOPC + 1% lipid II, after 30 mins incubation with 800 nM
Description: as §3
Extended Data Fig. 6 HS-AFM control experiments. […] Source data

[9] = Confocal microscopy of GUVs doped with Atto 550-labelled lipid II; conditions: DOPC GUVs with 0.1 mol% Atto 550-lipid II, 1 μM teixobactin, 3 h; biological triplicates
Description: We used a self-assembled GUV cell, aligned with two titanium electrodes in a closed Teflon chamber (volume = 500 μl). Of 0.5 mM DOPC doped with Atto 550-labelled lipid II (0.1 mol%), 1 μl was brushed on the titanium electrodes. The GUV cell was dried under vacuum. Next, the chamber was filled with 350 μl 0.1 M sucrose solution, the electrodes dipped in and connected to a power supply of a sine wave (2.5 V; 10 Hz; 90 min). Each microscopy slide (m-slide 8 well, Ibidi) was incubated with 350 μl BSA solution (1 mg ml^−1) for 1 h. To detach the GUVs, the power supply was changed to square wave (2 V; 2 Hz; 15 min). The slides were washed once with water and 0.1 M glucose solution. The slides were immersed in 300 μl of 0.1 M glucose solution to which 50 μl of GUVs was added. […] GUVs were imaged using Zeiss LSM 880 with ×63/1.2 NA glycerol and ×100/1.2 NA oil objective lenses. The Atto 550 label appeared red upon excitation by the 560-nm laser. The brightfield was used for detection and location of the GUVs and to observe their shape. Zeiss Zen Black software was used for the analysis of the images.

Substance: teixobactin
- membrane damage, Sytox green (in words) (Staphylococcus simulans [1]; Sytox green, Gram-positive bacteria, 20 °C, pH 7.2, 2 min before and 6 min after antibiotic, triplicates): Although less pronounced than for nisin, teixobactin also showed clear effects with Sytox green
- time of membrane defects in intact bacteria (Staphylococcus simulans [1]; intact bacteria, DiSC / Sytox green assays): ≤ 10 min
- oligomerization by pyrene-tagged lipid II (in words) [2]: with the increase in teixobactin concentration there is a relative decrease in the monomer signal followed by a respective increase in the excimer signal; also recorded: oligomers form immediately after the addition of teixobactin
- decrease in membrane potential / depolarization (in words) (Staphylococcus simulans [3]): sharp decrease in the membrane potential
- concentration stated as 10× MIC (B. subtilis): 0.2 µM
- membrane topology (in words) [4]: localizes at the water–membrane interface with the hydrophobic residues Ile2, Ile5 and Ile6 partitioned in the bilayer
- overall dynamics in the complex (in words) [5]: The overall dynamics of the molecule is very slow
- depth of fibrillar sheets below the membrane surface (membrane thinning) ([6]; 50 min after 800 nM teixobactin): approximately 0.5 nm
- height of fibrils on the membrane surface ([6]; DOPC bilayer with lipid II, 10 mM Tris-Cl 100 mM NaCl pH 8.0, error is standard deviation): 0.8 ± 0.1 nm
- peak-to-peak distance between fibrils in sheets ([6]; after the fibrils have descended into the surface): ~ 8 nm
- formation of fibrils (in words) ([6]; lipid II-doped bilayer): Fibrils were solely observed in the presence of both teixobactin and lipid II; also recorded: fibrils solely form in the presence of both teixobactin and Lipid II
- antiparallel β-sheet formation (in words) [7]: strongly supports that natural teixobactin also forms antiparallel β-sheets
- concentration stated as 1× MIC (S. simulans): 0.5 µM
- HS-AFM control result (in words) ([8]; membrane height at positions without fibrils, 30 min after teixobactin): membrane height at positions without fibrils remains unaltered
- membrane height ([8]; individual measurement, one line each): 4.81 and 4.99 and 5.22 and 4.65 and 4.79 and 5.05 and 5.1 and 4.77 and 4.67 and 5.01 and 4.5 and 4.97 and 4.95 and 5 and 4.87 and 4.68 and 4.96 and 4.63 and 4.88 and 4.89 and 4.9 and 5.12 and 4.8
- membrane height ([8]; mean): 4.873
- GUV oligomerization and membrane perturbation (in words) [9]: formation of micron-sized teixobactin–lipid II oligomers; also recorded: pronounced concave membrane perturbations at the oligomerization sites
